The record followed here is patent publication US7407973B2, “Use of pirfenidone in therapeutic regimens” (Intermune, Inc., priority 2003, dated 2008).

One experiment relates to SAPK. The experiment is described as follows: Human kinase panel, overall conclusion: SAPK. It is filed as biochemical. As to the method:
Enzymatic activity of various human kinases was assayed in the presence and the absence of pirfenidone. Percent enzyme activity of various human enzymes in the presence of substrate and pirfenidone are shown in FIGS. 1-5, and in Table 2, below, where “percent enzyme activity” is the percent of the control activity (e.g., in the absence of pirfenidone): […]

A further experiment relates to STAT1. Put plainly: IFN-γ-induced STAT1 tyrosine phosphorylation in ME180 cells (immunoblot). It is filed as cell-based, human. The conditions noted are these: serum-starved ME180 cells; 100 μg/ml Pirfenidone for 1 h, then 10 ng/ml IFN-γ for 0-60 min; anti-phospho STAT1 immunoblot. As for the experimental part:
ME180 cells were grown in DMEM supplemented with 10% heat inactivated fetal calf serum, 2 mM L-glutamine, streptomycin (100 μg/ml) and penicillin (100 units/ml). Briefly, cells were seeded at a density of 5×10^6 cells in 100 mm tissue culture dishes. After 24 hrs, cells were washed with phosphate-buffered saline (PBS) and incubated in serum free growth media for 16 hours, then treated with medium or with 100 μg/ml of Pirfenidone for 1 h before treating them with Actimune (10 ng/ml) for 0-10-20-40 and 60 min. At the end of incubation period, cells were lysed by incubation in 50 mM HEPES (pH 7.0) containing 100 mM NaCl, 1.2% Triton X-100, 10% glycerol, 1.5 mM MgCl2, 100 mM NaF, 10 mM sodium pyrophosphate, 1 mM sodium orthovanadate, 1 mM EGTA (ethylene glycol-bis-β-aminoethylether-tetraacetic acid), 1 mM DTT (dithiothreitol), 1 mM phenylmethylsulfonylfloride (PMSF), 0.15 unit/ml aprotinin, 10 μg/ml leupeptin, 10 μg/ml pepstatin. Lysates were clarified by centrifugation (12.000×g for 1 min.). Equal amounts (100 μg) total proteins were subjected to SDS-PAGE on 10% polyacrylamide gels to separate the proteins. The proteins were then electrophoretically transferred from the polyacrylamide gel onto a nitrocellulose sheet for overnight at 20 mAmp, and analyzed by immunoblotting with anti-phospho STAT1-specific antibody (antibody specific for phosphorylated STAT1). […]

For the molecule `Cc1ccc(=O)n(-c2ccccc2)c1` [pirfenidone, 5-methyl-1-phenyl-2-(1H)-pyridone], in the experiment with SAPK, the “Inhibition of SAPK (conclusion from Table 2 data)” value was “is an inhibitor of SAPK”. In the experiment with STAT1, the “Effect on IFN-γ-induced STAT1 tyrosine phosphorylation” value is “does not affect”.
